We go through one compound from paper PMC11236999, “Antagonism of propofol anesthesia by alkyl-fluorobenzene derivatives” (Scientific Reports, 2024).

“Also recorded” adds a separate entry of the source.

In experiment [1] the target is T1, horse spleen apoferritin (HSAF) (Equus caballus, UniProt P02791).
T1 construct: model protein HSAF (horse spleen apoferritin); purchased Sigma-Aldrich; host or cells: horse spleen (tissue-derived)
T1 sequence (P02791 2-175 limits assumed): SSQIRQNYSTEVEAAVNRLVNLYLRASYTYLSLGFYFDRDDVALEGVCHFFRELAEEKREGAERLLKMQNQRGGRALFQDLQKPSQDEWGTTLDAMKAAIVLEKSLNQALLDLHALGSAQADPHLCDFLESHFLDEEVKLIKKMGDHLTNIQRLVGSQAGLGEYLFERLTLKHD
The experiment in a line: 1-Aminoanthracene (1-AMA) competition fluorescence assay. The format is binding.

A further experiment concerns zebrafish. Also on record: method as in PMID 33355437. As to conditions: cited from earlier work.
The subject of experiment [2] is 5 dpf larval zebrafish. The experiment in a line: Zebrafish behavioral model of anesthesia, elicited movement (EM, tap stimulus). The format is in vivo. On the procedure:
(§1) Figure 2 Screening of PFAL compounds for antagonism of anesthesia. PFAL compounds were screened in 5 dpf zebrafish for their ability to antagonize the anesthetic effects of propofol (panels a, b, c and d) as well as sevoflurane and isoflurane (panels e and f). Each dot represents the data collected from one fish. Spontaneous movement (SM) is the distance of spontaneous swimming in a 4 min period, and elicited movement (EM) is distance moved in 1 s after exposure to a tap stimulus. Both measures were scaled to same-day DMSO controls. […] Mean and 95% CI are shown for each data set. Statistical comparison with both DMSO (D) only (black asterisks) and anesthetic control (Ctrl, gray asterisks) groups are shown. Note that each DMSO comparison is to the DMSO only control (sample on the furthest left of each graph, and the anesthetic control comparisons are made within each anesthetic grouping as indicated by the bars along the x-axis of each graph. ns: P > 0.05, *: P ≤ 0.05, **: P ≤ 0.01, ***: P ≤ 0.001, ****: P ≤ 0.0001).
(§2) Behavioral experiments (screening, EC50 curves) were performed as previously reported. Antagonism after induction was conducted in a similar manner with different timepoints and solution changes as indicated. The DanioVision Observation Chamber (Noldus) and Ethovision XT16 software were used to track and record (1280 × 960 resolution at 25 frames per second) larval zebrafish (5 dpf) movement in glass 96-well plates (Zissner North America 3,600,500). All experiments were performed at 28 °C with the DanioVision Temperature Control Unit. Zebrafish were allowed to equilibrate in E3 and 2% DMSO (with or without drug) for 10 min before being placed in the observation chamber for 22 min of recording. Two different endpoints were used to assess depth of anesthesia: spontaneous movement (SM) and elicited movement (EM). In these measures, fish movement was considered to be non-anesthetized. During each observation, fish were given time to acclimate to the chamber, and minutes 15–19 of the recording were used for analysis of SM. An EM response using the Daniovision tapping device (8 out of 8 intensity, movement response measured for 1 s after stimulus) was also measured at the end of the SM observation period. All recordings were scrutinized by a blind observer for technical errors in tracking to ensure accuracy of zebrafish detection and inaccurate tracking was excluded from further analysis. Toxicity was measured in separate experiments by exposing larvae to compounds for 30 min, transferring to fresh E3, and then observing mortality after exposure. […]

The subject of a further experiment is 5 dpf zebrafish. The experiment in a line: Antagonism of anesthesia after induction (sequential addition). The format is in vivo. To be noted: propofol 3 μM for 10 min, then propofol 3 μM plus 30 μM compound. On the procedure:
In the above studies, the anesthetic and PFAL compounds were co-administered to the fish simultaneously.
Figure 5 Further Characterization of Propofol Antagonism with Compounds 9 and 10. a and b 5 dpf zebrafish (n = 36) were first anesthetized with 3 μM propofol and then 30 μM of either compound 9 or 10 was added. Between minutes 5 and 10 there is a small gap in the data during which the propofol solution was removed and a solution containing propofol and PFAL compound was added. […] The mean and 95% CI is shown for each data point in all panels.
Behavioral experiments (screening, EC50 curves) were performed as previously reported. Antagonism after induction was conducted in a similar manner with different timepoints and solution changes as indicated. The DanioVision Observation Chamber (Noldus) and Ethovision XT16 software were used to track and record (1280 × 960 resolution at 25 frames per second) larval zebrafish (5 dpf) movement in glass 96-well plates (Zissner North America 3,600,500). […] An EM response using the Daniovision tapping device (8 out of 8 intensity, movement response measured for 1 s after stimulus) was also measured at the end of the SM observation period. […] Toxicity was measured in separate experiments by exposing larvae to compounds for 30 min, transferring to fresh E3, and then observing mortality after exposure.

The test system of experiment [3] is propofol-sensitive GABAAR. On the set-up: method as in PMID 25799399. As to conditions: cited from earlier work.
In a further experiment the test system is tadpoles. On the set-up: method as in PMID 25799399. To be noted: cited from earlier work.
For experiment [4], the system named is 5 dpf larval zebrafish. The experiment in a line: Zebrafish behavioral model of anesthesia, spontaneous movement (SM). The format is in vivo. The protocol: as §1, §2
The target of experiment [5] is T1, horse spleen apoferritin (HSAF). Also on record: method as in doi:10.1055/s-0040-1707287. As to conditions: cited from earlier work.
Setting [6] is: PFAL compound alone at 10 and 30 μM, versus DMSO control.

For orientation: IC50 means the concentration that inhibits the measured activity by half. Regarding `CC(C)c1cccc(C(C)C)c1F` [Compound 9, 1,3-diisopropyl-2-fluorobenzene], in experiment [1] (15 μM 1-AMA, 15 μM HSAF dimer, ligand 1 to 125 μM), the “Inhibition of 1-AMA binding to HSAF” value is “most potent inhibitors of 1-AMA binding”. For the same compound, the “Shape of IC50 curve for 1-AMA displacement” value in experiment [1] (Fig. 6b) is on record as “incomplete inhibition of 1-AMA binding”. In the experiment with zebrafish, the “Antagonism of propofol in zebrafish” value was “antagonize propofol”. Also, the “Elicited movement (EM), compound alone” value in the experiment with 5 dpf larval zebrafish [2] (setting [6]) was “increased EM”. Further, in the experiment with 5 dpf larval zebrafish [2] (propofol EC50 curves (EM) at various concentrations of the compound, Fig. S6), the “Schild-type analysis with EM” value is listed as “no such relationship of antagonism was observed”. Further, the “Reversal of established propofol immobility” value with 5 dpf zebrafish is “rapid reversal of propofol immobility”. In experiment [3], the “Modulation of a propofol-sensitive GABAAR” value was “no significant modulation”. The “Antagonism of propofol in tadpoles” value in the experiment with tadpoles is reported as “antagonize propofol”. The “Antagonism of propofol via SM” value in the experiment on 5 dpf larval zebrafish [4] (30 μM PFAL compound co-administered with propofol (0.3, 1, 5 μM), screen) was “showed antagonism of propofol; also recorded: statistically significant antagonism”. Also, the “Antagonism of propofol via SM at 5 μM propofol” value in the experiment with 5 dpf larval zebrafish [4] (30 μM PFAL compound, propofol 5 μM) is reported as “antagonized propofol”. Besides, the concentration for half-maximal inhibition (IC50) in the experiment with 5 dpf larval zebrafish [4] (Danio rerio, 120 h, 5 dpf zebrafish exposed to 3 μM propofol, Fig. 5d, read-out: IC50 (antagonism of propofol)) was 37.5 µM. For the same compound, in the experiment with 5 dpf larval zebrafish [4] (setting [6]), the “Spontaneous movement (SM), compound alone” value was “increased SM”. Besides, in the experiment on 5 dpf larval zebrafish [4] (propofol plus 30 μM compound, Fig. 4a), the “Increase of propofol EC50 versus propofol alone, spontaneous movement” value is on record as “~ tenfold”. The “Binding to the anesthetic site of HSAF” value in experiment [5] is “binds to this site”.
